# Measurements published in PubChem BioAssay (NCI).
#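 Grown in 96-well plates, cells were treated for 48 hours with each compound at five concentrations. Insufficient inhibition: endpoint recorded as highest concentration tested. At the TGI there is no net growth.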
# Tests used:
# Assay in all cases: NCI anticancer screen, dose series, 48 h
# HL-60(TB) leukemia = tested on: HL-60(TB) leukemia
# CCRF-CEM leukemia = tested on: CCRF-CEM leukemia
# MDA-MB-231 breast = tested on: MDA-MB-231 breast
# SF-295 CNS = tested on: SF-295 CNS
# A498 renal = tested on: A498 renal
# DU-145 prostate = tested on: DU-145 prostate
# M14 melanoma = tested on: M14 melanoma
# RPMI-8226 leukemia = tested on: RPMI-8226 leukemia
# BT-549 breast = tested on: BT-549 breast
# SW-620 colon = tested on: SW-620 colon
# OVCAR-3 ovarian = tested on: OVCAR-3 ovarian
# MCF7 breast = tested on: MCF7 breast
# OVCAR-5 ovarian = tested on: OVCAR-5 ovarian
# COLO 205 colon = tested on: COLO 205 colon
# OVCAR-4 ovarian = tested on: OVCAR-4 ovarian
# NCI-H460 lung = tested on: NCI-H460 lung
# SN12C renal = tested on: SN12C renal
# OVCAR-8 ovarian = tested on: OVCAR-8 ovarian
# SR leukemia = tested on: SR leukemia
# NCI-H522 lung = tested on: NCI-H522 lung
# SNB-19 CNS = tested on: SNB-19 CNS
# UACC-257 melanoma = tested on: UACC-257 melanoma
# NCI-H226 lung = tested on: NCI-H226 lung
# KM12 colon = tested on: KM12 colon
# RXF 393 renal = tested on: RXF 393 renal
# SF-539 CNS = tested on: SF-539 CNS
# HT29 colon = tested on: HT29 colon
# NCI-H23 lung = tested on: NCI-H23 lung
# HOP-92 NSCLC = tested on: HOP-92 NSCLC
# HCC-2998 colon = tested on: HCC-2998 colon
# A549 NSCLC = tested on: A549 NSCLC
# NCI/ADR-RES ovarian = tested on: NCI/ADR-RES ovarian
# K-562 leukemia = tested on: K-562 leukemia
# MDA-MB-435 = tested on: MDA-MB-435
# SK-MEL-5 melanoma = tested on: SK-MEL-5 melanoma
# TK-10 renal = tested on: TK-10 renal
# U251 CNS = tested on: U251 CNS
# IGROV1 ovarian = tested on: IGROV1 ovarian
# HCT-15 colon = tested on: HCT-15 colon
# SNB-75 CNS = tested on: SNB-75 CNS
# UO-31 renal = tested on: UO-31 renal
# PC-3 prostate = tested on: PC-3 prostate
# T-47D breast = tested on: T-47D breast
# SK-MEL-28 melanoma = tested on: SK-MEL-28 melanoma
# CAKI-1 renal = tested on: CAKI-1 renal
# SF-268 CNS = tested on: SF-268 CNS
# UACC-62 melanoma = tested on: UACC-62 melanoma
# MDA-N = tested on: MDA-N
# HCT-116 colon = tested on: HCT-116 colon
# ACHN renal = tested on: ACHN renal
# MOLT-4 leukemia = tested on: MOLT-4 leukemia
# EKVX NSCLC = tested on: EKVX NSCLC
# HS 578T breast = tested on: HS 578T breast
# SK-OV-3 ovarian = tested on: SK-OV-3 ovarian
# 786-0 renal = tested on: 786-0 renal
# SK-MEL-2 melanoma = tested on: SK-MEL-2 melanoma
# HOP-62 NSCLC = tested on: HOP-62 NSCLC
# MALME-3M melanoma = tested on: MALME-3M melanoma
smiles,measurement,setting,value
COC(=O)C(Cc1cn(C(C)=O)c2ccccc12)P(=O)(OC)OC (stereo unspecified),TGI,HL-60(TB) leukemia,> 100 µM
same,TGI,CCRF-CEM leukemia,> 100 µM
same,TGI,MDA-MB-231 breast,> 100 µM
same,TGI,SF-295 CNS,> 100 µM
same,TGI,A498 renal,> 100 µM
same,TGI,DU-145 prostate,> 100 µM
same,TGI,M14 melanoma,> 100 µM
same,TGI,RPMI-8226 leukemia,> 100 µM
same,TGI,BT-549 breast,> 100 µM
same,TGI,SW-620 colon,> 100 µM
same,TGI,OVCAR-3 ovarian,> 100 µM
same,TGI,MCF7 breast,> 100 µM
same,TGI,OVCAR-5 ovarian,> 100 µM
same,TGI,COLO 205 colon,> 100 µM
same,TGI,OVCAR-4 ovarian,> 100 µM
same,TGI,NCI-H460 lung,> 100 µM
same,TGI,SN12C renal,> 100 µM
same,TGI,OVCAR-8 ovarian,> 100 µM
same,TGI,SR leukemia,> 100 µM
same,TGI,NCI-H522 lung,> 100 µM
same,TGI,SNB-19 CNS,> 100 µM
same,TGI,UACC-257 melanoma,> 100 µM
same,TGI,NCI-H226 lung,> 100 µM
same,TGI,KM12 colon,> 100 µM
same,TGI,RXF 393 renal,> 100 µM
same,TGI,SF-539 CNS,> 100 µM
same,TGI,HT29 colon,> 100 µM
same,TGI,NCI-H23 lung,> 100 µM
same,TGI,HOP-92 NSCLC,> 100 µM
same,TGI,HCC-2998 colon,> 100 µM
same,TGI,A549 NSCLC,> 100 µM
same,TGI,NCI/ADR-RES ovarian,> 100 µM
same,TGI,K-562 leukemia,> 100 µM
same,TGI,MDA-MB-435,> 100 µM
same,TGI,SK-MEL-5 melanoma,> 100 µM
same,TGI,TK-10 renal,> 100 µM
same,TGI,U251 CNS,> 100 µM
same,TGI,IGROV1 ovarian,> 100 µM
same,TGI,HCT-15 colon,> 100 µM
same,TGI,SNB-75 CNS,> 100 µM
same,TGI,UO-31 renal,> 100 µM
same,TGI,PC-3 prostate,> 100 µM
same,TGI,T-47D breast,> 100 µM
same,TGI,SK-MEL-28 melanoma,> 100 µM
same,TGI,CAKI-1 renal,> 100 µM
same,TGI,SF-268 CNS,> 100 µM
same,TGI,UACC-62 melanoma,> 100 µM
same,TGI,MDA-N,> 100 µM
same,TGI,HCT-116 colon,> 100 µM
same,TGI,ACHN renal,> 100 µM
C[C@]12C[C@H](c3ccccc3)Nc3ccccc3N1C(c1ccccc1)=NO2,TGI,HL-60(TB) leukemia,> 100 µM
same,TGI,CCRF-CEM leukemia,> 100 µM
same,TGI,MDA-MB-231 breast,> 100 µM
same,TGI,MOLT-4 leukemia,78.8 µM
same,TGI,SF-295 CNS,> 100 µM
same,TGI,A498 renal,> 100 µM
same,TGI,DU-145 prostate,> 100 µM
same,TGI,M14 melanoma,> 100 µM
same,TGI,EKVX NSCLC,92.6 µM
same,TGI,HS 578T breast,> 100 µM
same,TGI,RPMI-8226 leukemia,> 100 µM
same,TGI,BT-549 breast,> 100 µM
same,TGI,SW-620 colon,> 100 µM
same,TGI,OVCAR-3 ovarian,> 100 µM
same,TGI,MCF7 breast,> 100 µM
same,TGI,OVCAR-5 ovarian,> 100 µM
same,TGI,COLO 205 colon,> 100 µM
same,TGI,OVCAR-4 ovarian,> 100 µM
same,TGI,NCI-H460 lung,> 100 µM
same,TGI,SN12C renal,> 100 µM
same,TGI,OVCAR-8 ovarian,> 100 µM
same,TGI,SR leukemia,26.6 µM
same,TGI,NCI-H522 lung,> 100 µM
same,TGI,SNB-19 CNS,> 100 µM
same,TGI,UACC-257 melanoma,> 100 µM
same,TGI,NCI-H226 lung,> 100 µM
same,TGI,KM12 colon,> 100 µM
same,TGI,SK-OV-3 ovarian,> 100 µM
same,TGI,RXF 393 renal,> 100 µM
same,TGI,SF-539 CNS,> 100 µM
same,TGI,HT29 colon,> 100 µM
same,TGI,786-0 renal,> 100 µM
same,TGI,NCI-H23 lung,> 100 µM
same,TGI,HOP-92 NSCLC,> 100 µM
same,TGI,SK-MEL-2 melanoma,> 100 µM
same,TGI,HCC-2998 colon,> 100 µM
same,TGI,A549 NSCLC,> 100 µM
same,TGI,NCI/ADR-RES ovarian,> 100 µM
same,TGI,K-562 leukemia,> 100 µM
same,TGI,MDA-MB-435,> 100 µM
same,TGI,SK-MEL-5 melanoma,> 100 µM
same,TGI,TK-10 renal,> 100 µM
same,TGI,U251 CNS,> 100 µM
same,TGI,IGROV1 ovarian,> 100 µM
same,TGI,HCT-15 colon,> 100 µM
same,TGI,SNB-75 CNS,> 100 µM
same,TGI,UO-31 renal,> 100 µM
same,TGI,PC-3 prostate,> 100 µM
same,TGI,HOP-62 NSCLC,> 100 µM
same,TGI,CAKI-1 renal,> 100 µM
same,TGI,SF-268 CNS,> 100 µM
same,TGI,UACC-62 melanoma,> 100 µM
same,TGI,MDA-N,> 100 µM
same,TGI,HCT-116 colon,> 100 µM
same,TGI,ACHN renal,> 100 µM
same,TGI,MALME-3M melanoma,> 100 µM
